Source: patent US12606548B2, “Fungicidal oxadiazoles” (FMC CORPORATION, priority 2019, dated 2026)

Key:
Phakopsora pachyrhizi = assay: Test A: test suspension sprayed on soybean seedlings, inoculated next day with Phakopsora pachyrhizi (Asian soybean rust), visual disease rating; type: in vivo; details: for Test A rating (% disease control): relative to the controls
From the text: General protocol for preparing test suspensions for Tests A-C: the test compounds were first dissolved in acetone in an amount equal to 3% of the final volume and then suspended at the desired concentration (in ppm) in acetone and purified water (50/50 mix by volume) containing 250 ppm of the surfactant PEG400 (polyhydric alcohol esters). The resulting test suspensions were then used in Tests A-C. The test suspension was sprayed to the point of run-off on soybean seedlings. The following day the seedlings were inoculated with a spore suspension of Phakopsora pachyrhizi (the causal agent of Asian soybean rust) and incubated in a saturated atmosphere at 22° C., for 24 h and then moved to a growth chamber at 22° C., for 8 days, after which time visual disease ratings were made. […] A dash (-) indicates the compound was not tested. The test suspensions were sprayed at the concentration listed in the column “Rate in ppm”, unless otherwise indicated.

[1] = tested on: Puccinia recondita f. sp. tritici; assay: Test C: test suspension sprayed on wheat seedlings, inoculated next day with Puccinia recondita f. sp. tritici (wheat leaf rust), visual disease rating; type: in vivo; details: for Test C rating (% disease control): relative to the controls
From the text: General protocol for preparing test suspensions for Tests A-C: the test compounds were first dissolved in acetone in an amount equal to 3% of the final volume and then suspended at the desired concentration (in ppm) in acetone and purified water (50/50 mix by volume) containing 250 ppm of the surfactant PEG400 (polyhydric alcohol esters). The resulting test suspensions were then used in Tests A-C. The test suspension was sprayed to the point of run-off on wheat seedlings. The following day the seedlings were inoculated with a spore suspension of Puccinia recondita f. sp. tritici; (the causal agent of wheat leaf rust) and incubated in a saturated atmosphere at 20° C., for 24 h, and then moved to a growth chamber at 20° C., for 6 days, after which time visual disease ratings were made. […] A dash (-) indicates the compound was not tested. The test suspensions were sprayed at the concentration listed in the column “Rate in ppm”, unless otherwise indicated.

Compound | Test A rating (% disease control) (Phakopsora pachyrhizi; Rate 10 ppm test suspension) [%] | Test C rating (% disease control) ([1]; Rate 10 ppm test suspension) [%] | further results
FC(F)(F)c1nc(-c2ccc(Cn3cc4c(I)ccnc4n3)cc2)no1 [compound 445] | 100 | 99 | –
C=CCOC(=O)c1cnn(Cc2cc(OC)c(-c3noc(C(F)(F)F)n3)s2)c1 [compound 440] | 0 | 0 | –
COC(=O)c1ccc2c(c1)nnn2Cc1ccc(-c2noc(C(F)(F)F)n2)cc1 [compound 22] | – | – | Test A disease control rating (Phakopsora pachyrhizi; 10 ppm test suspension): 100%; Test C disease control rating ([1]; 10 ppm test suspension): 96%
CCOC(=O)C1(Cc2ccc(-c3noc(C(F)(F)F)n3)cc2)CCCNC1=O (stereo not shown) [compound 432] | – | – | Test A rating (% disease control) (Phakopsora pachyrhizi; Rate 50 ppm test suspension): 100%; Test C rating (% disease control) ([1]; Rate 50 ppm test suspension): 92%
CCC(C)OC(=O)c1cnn(Cc2ccc(-c3noc(C(F)(F)F)n3)cc2)c1 (stereo not shown) [compound 481] | 100 | 100 | –
CNC(=O)c1cnn(CCCc2ccc(-c3noc(C(F)(F)F)n3)cc2)c1 [compound 415] | 100 | 96 | –
CS(=O)(=O)CCOC(=O)c1cnn(Cc2ccc(-c3noc(C(F)(F)F)n3)cc2)c1 [compound 390] | 100 | 100 | –
CCOC(=O)C1(Cc2ccc(-c3noc(C(F)(F)F)n3)cc2)CCNC1=O (stereo not shown) [compound 431] | – | – | Test A rating (% disease control) (Phakopsora pachyrhizi; Rate 50 ppm test suspension): 99%; Test C rating (% disease control) ([1]; Rate 50 ppm test suspension): 98%
CS(=O)(=O)Nc1cnn(Cc2ccc(-c3noc(C(F)(F)F)n3)cc2)c1 [compound 442] | 44 | 0 | –
O=C(OCCN1CCOCC1)c1cnn(Cc2ccc(-c3noc(C(F)(F)F)n3)cc2)c1 [compound 475] | 100 | 91 | –
FC(F)(F)c1nc(-c2ccc(Cn3ncc4ncccc43)cc2)no1 [compound 408] | 100 | 100 | –
Nc1nn(Cc2ccc(-c3noc(C(F)(F)F)n3)cc2)c2ncccc12 [compound 446] | 99 | 86 | –
CN(CC#N)C(=O)c1cnn(Cc2ccc(-c3noc(C(F)(F)F)n3)cc2)c1 [compound 379] | 100 | 97 | –
O=C(Nc1ccccc1)c1cnn(Cc2ccc(-c3noc(C(F)(F)F)n3)cc2)c1 [compound 485] | 100 | 99 | –
CN(C)C(=O)c1cnn(CCCc2ccc(-c3noc(C(F)(F)F)n3)cc2)c1 [compound 406] | 100 | 93 | –
O=C(OCC1CC1)c1cnn(Cc2ccc(-c3noc(C(F)(F)F)n3)cc2)c1 [compound 411] | 100 | 100 | –
CCCOC(=O)c1cnn(C(C)c2ccc(-c3noc(C(F)(F)F)n3)s2)c1 (racemic) [compound 493] | 100 | 100 | –
CCOC(=O)c1cnn(Cc2ccc3cc(-c4noc(C(F)(F)F)n4)ccc3c2)c1 [compound 457] | – | – | Test A rating (% disease control) (Phakopsora pachyrhizi; Rate 50 ppm test suspension): 77%; Test C rating (% disease control) ([1]; Rate 50 ppm test suspension): 0%
C=C(C#N)COC(=O)c1cnn(Cc2ccc(-c3noc(C(F)(F)F)n3)cc2)c1 [compound 486] | 100 | 89 | –
O=C(OCc1ccccn1)c1cnn(Cc2ccc(-c3noc(C(F)(F)F)n3)cc2)c1 [compound 479] | 100 | 100 | –
CCCCCOC(=O)c1cnn(Cc2ccc(-c3noc(C(F)(F)F)n3)cc2)c1 [compound 447] | 100 | 100 | –
O=C(OCCBr)c1cnn(Cc2ccc(-c3noc(C(F)(F)F)n3)cc2)c1 [compound 478] | – | – | Test A rating (% disease control) (Phakopsora pachyrhizi; Rate 50 ppm test suspension): 81%; Test C rating (% disease control) ([1]; Rate 50 ppm test suspension): 19%

Compound | Test A rating (% disease control) (Phakopsora pachyrhizi; Rate 10 ppm test suspension) [%] | Test C rating (% disease control) ([1]; Rate 10 ppm test suspension) [%] | further results
CCOC(=O)COC(=O)c1cnn(Cc2ccc(-c3noc(C(F)(F)F)n3)cc2)c1 [compound 476] | 100 | 86 | –
FC(F)(F)c1nc(-c2ccc(Cn3cc4cnc(Cl)nc4n3)cc2)no1 [compound 433] | 100 | 99 | –
CCOC(=O)c1cn(Cc2ccc(-c3noc(C(F)(F)F)n3)cc2)c(=O)cn1 [compound 419] | 96 | 99 | –
CC(=O)NN=Cc1cnn(Cc2ccc(-c3noc(C(F)(F)F)n3)cc2)c1 [compound 389] | 100 | 100 | –
COCCNC(=O)C1=NOC(Cc2ccc(-c3noc(C(F)(F)F)n3)s2)C1 (racemic) [compound 461] | – | – | Test A rating (% disease control) (Phakopsora pachyrhizi; Rate 50 ppm test suspension): 100%; Test C rating (% disease control) ([1]; Rate 50 ppm test suspension): 100%
CCOC(=O)c1cc(C)n(Cc2ccc(-c3noc(C(F)(F)F)n3)cc2)n1 [compound 110] | – | – | Test A disease control rating (Phakopsora pachyrhizi; 10 ppm test suspension): 100%; Test C disease control rating ([1]; 10 ppm test suspension): 91%
CCOC(=O)Nc1cnn(Cc2ccc(-c3noc(C(F)(F)F)n3)cc2)c1 [compound 443] | 100 | 74 | –
CC(C)CCOC(=O)c1cnn(Cc2ccc(-c3noc(C(F)(F)F)n3)cc2)c1 [compound 480] | 100 | 98 | –
O=C(NCC(F)(F)F)c1cnn(Cc2ccc(-c3noc(C(F)(F)F)n3)cc2)c1 [compound 449] | 100 | 100 | –
Nc1cnn(Cc2ccc(-c3noc(C(F)(F)F)n3)cc2)c1 [compound 381] | 0 | 0 | –
COC(=O)c1cnn(CCCc2ccc(-c3noc(C(F)(F)F)n3)cc2)c1 [compound 427] | – | – | Test A rating (% disease control) (Phakopsora pachyrhizi; Rate 50 ppm test suspension): 100%; Test C rating (% disease control) ([1]; Rate 50 ppm test suspension): 67%
C#CCON=Cc1cnn(Cc2ccc(-c3noc(C(F)(F)F)n3)cc2)c1 [compound 387] | 100 | 99 | –
CCOC(CC(=O)c1cnn(Cc2ccc(-c3noc(C(F)(F)F)n3)cc2)c1)OCC [compound 391] | 100 | 100 | –
CCOC(=O)c1cnn(CCCc2ccc(-c3noc(C(F)(F)F)n3)cc2)c1 [compound 437] | 100 | 86 | –
COC(=O)c1cccn(Cc2ccc(-c3noc(C(F)(F)F)n3)cc2)c1=O [compound 422] | 90 | 93 | –
O=C(O)C1=NOC(Cc2ccc(-c3noc(C(F)(F)F)n3)s2)C1 (racemic) [compound 367] | – | – | Test A disease control rating (Phakopsora pachyrhizi; 50 ppm test suspension): 96%; Test C disease control rating ([1]; 50 ppm test suspension): 67%
CCOC(=O)c1cncn(Cc2ccc(-c3noc(C(F)(F)F)n3)cc2)c1=O [compound 418] | 100 | 99 | –
6-chloro-2-[[4-[5-(trifluoromethyl)-1,2,4-oxadiazol-3-yl]phenyl]methyl]-3(2H)-pyridazinone [Compound 4] | – | – | Test A disease control rating (Phakopsora pachyrhizi; 50 ppm test suspension): 100%; Test C disease control rating ([1]; 50 ppm test suspension): 100%
O=[N+]([O-])c1cnn(Cc2ccc(-c3noc(C(F)(F)F)n3)cc2)c1 [compound 382] | 100 | 96 | –
1-[[4-[5-(trifluoromethyl)-1,2,4-oxadiazol-3-yl]phenyl]methyl]-1H-pyrazolo[3,4-b]pyridine [Compound 147] | – | – | Test A disease control rating (Phakopsora pachyrhizi; 10 ppm test suspension): 100%; Test C disease control rating ([1]; 10 ppm test suspension): 68%
FC(F)(F)c1nc(-c2ccc(Cn3cc(I)cn3)cc2)no1 [compound 383] | 71 | 68 | –
CCCON=Cc1cnn(Cc2ccc(-c3noc(C(F)(F)F)n3)cc2)c1 [compound 385] | 100 | 100 | –
